Data on one molecule can be found in US11974988B2, “Neuroprotective compositions and methods of using the same” (The Board of Supervisors of Louisiana State Univer …, priority 2018, dated 2024).

Entries after “also recorded” stand apart in the source; their conditions may differ.

For assay [1], the system named is hippocampal neurons of KA-treated rats. Briefly: KA-induced status epilepticus model, hippocampal neurodegeneration (fluoro-jade B, NeuN). Format: in vivo, rat. To be noted: rat, in vivo.
Text: (§1) In Aim 3, we treat male and female rats with the ‘best’ SKA-41 derivatives before and after injection of kainic acid (KA). The KA-induced status epilepticus (SE) model is a well-validated model of temporal lobe epilepsy (TLE), the major form of human epilepsy. The model allows studying the different stages between SE and the development of TLE including SE, the acute and latent stages of epileptogenesis and chronic epilepsy. The excitotoxin KA causes excessive Glu release in the hippocampus and selective destruction of inhibitory SOM interneurons in the hilus region of the dentate gyrus (DG) and loss of pyramidal neurons in the CA3 (esp), and also CA1 regions. We scaled up synthesis of SKA-41, 219, and SKA-378. The identity of the compounds was confirmed by ^1H- and ^13C-NMR and high-resolution mass spectrometry. Compound purity is determined by HPLC and no compounds with less then 98% purity were used. […] Rats were processed for immunohistochemistry 3 days after KA administration. As expected, we find that KA treatment induces significant neural damage (green cells) in the CA3 pyramidal neuron subfield and in neurons in the hilus (FIG. 20 Panel A), which are SOM containing GABAergic interneurons (not shown). Fluoro jade B is a high affinity fluorescent marker used for the localization of neuronal degeneration. […] In studies, we have also administered SKA-378 (30 mg/kg) one hr after the onset of stage IV seizures (SE), followed by another injection at 4 hr post SE and then once each day for 3 days. We find that SKA-378 is also neuroprotective under these conditions.
as §1, with “with” for “with the ‘best’”, “(esp)” for “(esp),”, “were” for “was”, “We” for “As expected, we”, “23” for “20”, “Fluoro-jade” for “Fluoro jade”

Assay [2] relates to rats injected with kainic acid (KA). As to the kind of experiment: Kainic acid (KA) seizure model, behaviour. In kind it is in vivo, rat. The source says: […]. Systemic administration of the glutamate analog, kainic acid (KA), to rats produces progressive limbic seizures culminating in status epilepticus that results in neuronal loss within limbic structures in a pattern similar to that observed in human temporal lobe epilepsy.

For assay [3], the system named is organotypic hippocampal slice cultures. As to the kind of experiment: Oxygen-glucose deprivation (OGD) in organotypic hippocampal slice cultures, propidium iodide staining. To be noted: 20 min OGD, PI 24 h later; SKA-41 30 μM, MK-801 20 μM, riluzole 30 μM, NBQX 10 μM/AP5 50 μM. Format: cell-based, rat. The procedure:
OGD is an in vitro model for transient cerebral ischemia. In preliminary studies, we prepared hippocampal slice cultures from P7-8 rat pups. Experiments were performed at 14 DIV, when presynaptic Glu function is maximal and synapse formation and NMDAR subunit expression have reached a developmental stage sufficient to sensitize the slice to excitotoxic injury. Propidium iodide (PI), which binds to DNA in a nonspecific manner by penetrating damaged phospholipoid bilayers, was used to assess neural injury 24 h after OGD. […] SKA-41 was present 30 min prior to OGD, during OGD and during the 24 h recovery period.

For the molecule `Nc1nc(-c2ccc(OC(F)(F)F)cc2)cs1` [SKA-41, 4-(4-(Trifluoromethoxy)phenyl)thiazol-2-amine], the “neuroprotection against Glu-induced excitotoxicity in the KA model of TLE” value in assay [1] is reported as “neuroprotective”. Also, in assay [2] (SKA-41 30 mg/kg pretreatment), the “time until staring and twitching signs disappeared after KA injection” value was no more than 2 h. The “clonic-tonic convulsions after KA” value in assay [2] (rat, in vivo) is listed as “clonic-tonic convulsions were not observed”. The “OGD-induced neural injury (PI staining)” value in assay [3] was “completely prevents PI staining; also recorded: prevents OGD-induced neural injury”.
